Drawing on patent US6686369B1, “α-hydrdroxylic acid derivatives, their production and use” (Abbott GmbH & Co., KG, priority 1996, dated 2004), this text covers Ki for seven compounds.

The target of one experiment is T1, ETB receptor (Cavia porcellus, UniProt H0VTF3).
T1 construct: Guinea-pig cerebella were homogenized in a Potter-Elvejhem homogenizer; from tissue; host or cells: guinea-pig cerebellum membranes
T1 sequence (H0VTF3 27-415): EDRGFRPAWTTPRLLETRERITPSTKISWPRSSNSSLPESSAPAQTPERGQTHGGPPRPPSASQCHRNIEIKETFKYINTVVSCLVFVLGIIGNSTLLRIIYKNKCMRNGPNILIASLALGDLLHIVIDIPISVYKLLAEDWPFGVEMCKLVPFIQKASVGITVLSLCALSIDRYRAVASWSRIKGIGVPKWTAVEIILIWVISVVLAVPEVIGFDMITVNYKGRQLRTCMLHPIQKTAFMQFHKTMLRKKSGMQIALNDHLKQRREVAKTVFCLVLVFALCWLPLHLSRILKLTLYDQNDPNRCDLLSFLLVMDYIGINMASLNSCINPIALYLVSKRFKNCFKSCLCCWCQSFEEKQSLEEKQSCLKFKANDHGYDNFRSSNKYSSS
Put plainly: ETB receptor binding assay ([125I]-RZ3, guinea-pig cerebellar membranes). The following applies: 25 pM [125I]-RZ3, 25° C. The protocol: (§1) For binding studies, cloned human ETA receptor-expressing CHO cells and guinea-pig cerebellar membranes with >60% ETB relative to ETA receptors were employed.
Guinea-pig cerebella were homogenized in a Potter-Elvejhem homogenizer and obtained by differential centrifugation at 1000×g for 10 min and repeated centrifugation of the supernatant at 20,000×g for 10 min.
(§2) For the ETA and ETB receptor binding assays, the membranes were suspended in incubation buffer (50 mM Tris-HCl, pH 7.4 with 5 mM MnCl2, 40 μg/ml bacitracin and 0.2% BSA) at a concentration of 50 μg of protein per assay mixture and incubated at 25° C. with 25 pM [125I [sic]]-ET1 (ETA receptor assay) or 25 pM [125I [sic]]-RZ3 (ETB receptor assay) in the presence and absence of test substance. The nonspecific binding was determined with 10^−7 M ET1. Filtration through GF/B glass fiber filters (Whatman, England) in a Skatron cell collector (Skatron, Lier, Norway) after 30 min separated the free and the bound radioligand, and the filters were washed with ice-cold Tris-HCl buffer, pH 7.4 with 0.2% BSA. The radioactivity collected on the filters was quantified using a Packard 2200 CA liquid scintillation counter.

Experiment [1] deals with T2, cloned human ETA receptor (Homo sapiens, UniProt P25101).
T2 construct: expressed in transfected cells; host or cells: CHO cells
T2 sequence (P25101 21-427): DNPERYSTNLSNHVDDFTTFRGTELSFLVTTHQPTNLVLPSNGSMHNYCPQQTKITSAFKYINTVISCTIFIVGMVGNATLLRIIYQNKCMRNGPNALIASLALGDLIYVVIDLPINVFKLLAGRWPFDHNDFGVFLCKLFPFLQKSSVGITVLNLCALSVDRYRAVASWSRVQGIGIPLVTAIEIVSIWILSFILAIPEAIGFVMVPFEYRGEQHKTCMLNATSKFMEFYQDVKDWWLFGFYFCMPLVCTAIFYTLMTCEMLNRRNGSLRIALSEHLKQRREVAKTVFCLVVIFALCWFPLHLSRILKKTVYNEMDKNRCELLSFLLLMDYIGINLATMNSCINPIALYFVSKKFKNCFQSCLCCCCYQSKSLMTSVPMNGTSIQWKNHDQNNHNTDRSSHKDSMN
Put plainly: ETA receptor binding assay ([125I]-ET1, membranes of ETA receptor-expressing CHO cells). The settings on record: CHO cell membranes, 25 pM [125I]-ET1, 25° C. Here is the method:
as §1
The ETA receptor-expressing CHO cells were grown in F12 medium with 10% fetal calf serum, 1% glutamine, 100 U/ml penicillin and 0.2% streptomycin (Gibco BRL, Gaithersburg, Md., USA). After 48 h, the cells were washed with PBS and incubated with 0.05% trypsin-containing PBS for 5 min. After neutralization with F12 medium, the cells were collected by centrifugation at 300×g. For cell lysis, the pellet was briefly washed with lysis buffer (5 mM Tris-HCl, pH 7.4 with 10% glycerol) and then incubated at a concentration of 10^7 cells/ml of lysis buffer at 4° C. for 30 min. The membranes were centrifuged at 20,000×g for 10 min, and the pellet was stored in liquid nitrogen.
as §2

Structures are written as SMILES.

Regarding `COc1cc(C)nc(OC(C(=O)O)C(CO)(c2ccccc2)c2ccccc2)n1` (centres unmarked) [Compound I-20], the Ki at ETB receptor was 445 nM; in experiment [1] it was 5 nM.

With `COc1cc(C)nc(OC(C(=O)O)C(C)(c2ccccc2)c2ccccc2)n1` (centres unmarked) [Compound I-2], the inhibitory constant (Ki) at ETB receptor is 290 nM; in experiment [1] it was 3.5 nM.

Take `CCC(c1ccccc1)(c1ccccc1)C(Oc1nc(OC)cc(OC)n1)C(=O)O` (centres unmarked) [Compound I-11]: the values for the Ki (at ETB receptor; in experiment [1]) were 1400 nM and 20 nM, respectively.

As for `CCC(c1ccccc1)(c1ccccc1)C(Oc1nc(C)cc(C)n1)C(=O)O` (centres unmarked) [Compound I-15], the Ki at ETB receptor is 540 nM; in experiment [1], 4 nM.

For the compound `Cc1cc(C)nc(OC(C(=O)O)C(C)(c2ccccc2)c2ccccc2)n1` (racemic) [Compound I-3, 2-(4,6-Dimethyl-2-pyrimidinyloxy)-3,3-diphenylbutyric Acid], the Ki on ETB receptor was determined as 325 nM; in experiment [1], 4 nM.

In the case of `COc1cc(OC)nc(OC(C(=O)O)C(C)(c2ccccc2)c2ccccc2)n1` (centres unmarked) [Compound I-1], the Ki is 950 nM at ETB receptor and 25 nM in experiment [1].

In the case of `CCC(c1ccccc1)(c1ccccc1)C(Oc1nc(C)cc(OC)n1)C(=O)O` (centres unmarked) [Compound I-12], the Ki at ETB receptor was 250 nM; in experiment [1] it was 4 nM.

One may read the Ki as a measure of affinity in units of concentration, obtained from inhibition or displacement.
